Experimental data taken from paper PMC5686178, “Antimicrobial peptides in frog poisons constitute a molecular toxin delivery system against predators” (Nature Communications, 2017).
Where a SMILES comes first, the peptide text is derived from it. Where no end group is shown, it is not given here. [ ]: non-standard residue; d: D form. sY = N[C@@H](Cc1ccc(OS(=O)(=O)O)cc1)C(=O)O; pGlu = O=C1CC[C@@H](C(=O)O)N1

Experiments:
[1] = test system: Caco-2 monolayers; test: Scanning electron microscopy of Caco-2 monolayers; format: cell-based, Human; conditions: fixation 5 min after administration
Procedure: Caco-2 cells were seeded on glass coverslips that were coated with rat tail collagen 1 (Sigma-Aldrich) the day before. The effect of four treatments (100 µM CPF, 100 µM caerulein, 100 µM CPF + caerulein, and a negative control) on differentiated Caco-2 monolayers was visualized. Chemical fixation was performed in 12-well culture plates 5 min after peptide administration (700 µl of solution in all treatments). For fixation, plate wells were filled with 1 ml 2,5% glutaraldehyde in 0.05 M sodium cacodylate buffer (pH 7.4; 37 °C) for 20 min, and subsequently washed twice with the same buffer. Postfixation was performed with 1% osmium tetroxide for 30 min, followed by three rinses with double-distilled water. Dehydration was carried out using a graded hexylene glycol series: 30; 50; 70; and 90%, taking 15 min for each step. Cells were rinsed three times for 10 min with 100% hexylene glycol, and then two more times for 10 min with 100% ethanol. Critical-point drying of coverslips was done using a Balzers union CPD020. Dried coverslips were mounted on carbon-coated stubs with double-sided conductive tape. Gold coating happened with a Jeol 1200JFC fine coater, after which coverslips were examined with a Jeol JSM-840 scanning electron microscope operating at 12 kV.

[2] = ref [8],[23]; cited from earlier work
Text: As the main model for our study, we used a peptide pair composed of the systemic toxin caerulein, and the AMP caerulein precursor fragment-3 (CPF), both of which are key constituents of the skin secretion of the frog Xenopus laevis [18]–[20] (Fig. 1b). Caerulein is a potent ligand of cholecystokinin receptors expressed in the vertebrate intestine, pancreas, and brain[9], and at sufficiently high concentrations, may induce nausea, hypotension, intestinal cramps, vomiting, and diarrhea[9],[21],[22]. Even in the intestine, the target receptors are only accessible by means of epithelial absorption ...

[3] = test system: other vertebrates; conditions: intravenous, ref [9],[21],[22], cited from earlier work
[4] = test system: Caco-2 monolayers; test: Transepithelial toxin passage across Caco-2 monolayers (ELISA); conditions: 60 min
[5] = test system: EpiOral 3D tissues; test: Transepithelial toxin passage across EpiOral multilayered oral epithelial model (ELISA); format: in vitro ADME; conditions: 8-11 stacked cell layers, 60 min, n = 8, vs caerulein alone
[6] = Caco-2 monolayer, apical to basolateral, 20 nmol caerulein + 20 nmol CPF (100 µM both) apical, ELISA, n = 9

## CSCC[C@H](NC(=O)[C@H](Cc1c[nH]c2ccccc12)NC(=O)CNC(=O)[C@@H](NC(=O)[C@H](Cc1ccc(OS(=O)(=O)O)cc1)NC(=O)[C@H](CC(=O)O)NC(=O)[C@H](CCC(N)=O)NC(=O)[C@@H]1CCC(=O)N1)[C@@H](C)O)C(=O)N[C@@H](CC(=O)O)C(=O)N[C@@H](Cc1ccccc1)C(N)=O [caerulein] ([pGlu]QD[sY]TGWMDF-NH2)
[1]; 100 µM caerulein
  Damage to Caco-2 monolayers by SEM, toxin alone: does not damage Caco-2 monolayers
[2]
  Half-life in the bloodstream: up to 45 min
[3]; converted from 1 μg/kg BW
  Intravenously injected dose that caused severe sickness, molar: 0.74 pmol/g BW
[3]
  Intravenously injected dose that caused severe sickness: 1 μg/kg BW
[4]; Caco-2 monolayer on collagen-coated transwell 0.4 µm, apical to basolateral, caerulein alone 100 µM (20 nmol) apical, apical 200 µL / basolateral 1000 µL, ELISA, n = 9
  Transepithelial passage of caerulein, % of applied dose at basolateral side: 0.3 – 1%
[4]; [6]
  Transepithelial passage of caerulein, % of applied dose at basolateral side, CPF co-administered: 2.3–6.8%
  Transepithelial passage of caerulein, amount at basolateral side, CPF co-administered: 0.45 to 1.36 nmol
[4]; Caco-2 monolayer, apical to basolateral, caerulein alone 100 µM (20 nmol) apical, ELISA, n = 9
  Transepithelial passage of caerulein, amount at basolateral side: 0.06 to 0.20 nmol

## GFGSFLGKALKAALKIGANALGGSPQQ [CPF, caerulein precursor fragment-3]
[5]
  Increase in caerulein passage by co-administered CPF, oral multilayer model: nearly fivefold increase
[1]; 100 µM CPF + caerulein
  Damage to Caco-2 monolayers by SEM, CPF present: abundant intercellular ruptures in the monolayer
[4]; Caco-2 monolayer, 100 µM both, on average, vs caerulein alone
  Increase in rate of transepithelial passage of caerulein by co-administered CPF: near sevenfold increase

## GIGASILSAGKSALKGLAKGLAEHFAN-NH2 [BLP, bombinin-like peptide 1]
[4]; Caco-2 monolayer, 100 µM both apical, ELISA, n = 9, vs toxin alone
  Enhancement of transepithelial passage of bombesin by co-administered BLP: ~ 4.5 times
